Assay results as given in article PMC8126241, “Active Components from Cassia abbreviata Prevent HIV-1 Entry by Distinct Mechanisms of Action” (International Journal of Molecular Sciences, 2021).
Read-outs that look alike come from different tables or passages of the source.

Experiments:
HIV-1 IIIB [1] = assay: microbe, parasite or virus in culture; conditions: Human immunodeficiency virus 1, IIIB, PBMC, 168 h, read-out: IC50 IIIB
HIV-1 ADA-M [2] = assay: microbe, parasite or virus in culture; conditions: Human immunodeficiency virus 1, PBMC, 168 h, read-out: IC50 ADA-M
[3] = system: non-B HIV-1 primary clinical isolate #2; assay: microbe, parasite or virus in culture; conditions: Human immunodeficiency virus 1, PBMC, 168 h, read-out: IC50 Clinical isolate #2
[4] = system: non-B HIV-1 primary clinical isolate #1; assay: microbe, parasite or virus in culture; conditions: Human immunodeficiency virus 1, PBMC, 168 h, read-out: IC50 Clinical isolate #1
HIV-1 = assay: microbe, parasite or virus in culture; assay type: cell-based; conditions: for Anti-HIV activity: piceatannol analogues, pseudotype and MTT assay; for IC50: Human immunodeficiency virus 1, read-out: IC50 anti-HIV-1 activity
From the text: (§1) Since molecular details of piceatannol interaction with its target(s) are currently not available, we performed a structure-activity relationship (SAR) study with the aim to understand the chemical and pharmacophoric features of piceatannol that are relevant for its anti-HIV activity. Seventeen chemical analogues of piceatannol (molecules 1–17, Figure 6) were designed and retrieved from commercial vendors and from an in-house library of natural products and their derivatives and tested in vitro against HIV-1 entry and HIV-1 infection using the pseudotype and the MTT assay, respectively. […] Besides, the two flavones hispidulin 14 and norartocarpetin 15, and the two styrene derivatives 16 and methyl ferulate 17 were tested.

[5] = Cytotoxicity of piceatannol analogues
From the text: as §1

[6] = system: pseudotype virus pNL4.3ΔEnvLuc-HXB2; assay: microbe, parasite or virus in culture; conditions: Human immunodeficiency virus 1, HXB2, read-out: IC50 HIV-1 entry
[7] = system: HIV-1 gp120 / CD4 binding; assay: CD4-gp120 interaction assay (ELISA); conditions: in-house ELISA
Experimental: Human soluble CD4 (sCD4) was immobilized in a 96-well plate by adding 100 ng sCD4 (R&D Systems, Belgium) in 100 μL PBS per well and incubated at 4 °C. After 24 h, the CD4 coated plate was washed with 1% BSA-PBS and blocked by adding 100μL 5% BSA-PBS per well for 1 h at 4 °C. The coated plate was then washed and incubated with or without drugs for 1 h at 4 °C. After washing, 100 ng HIV-1 gp120 protein (Fitzgerald, Acton, MA, USA) was added into the plate and kept for 1 h at 4 °C. The plate was washed, and anti-HIV-1 gp120 (Aalto Bio Reagents, Dublin, Ireland) (100 ng/100 μL PBS) was added. After 1 h, the plate was washed and anti-sheep HRP (Sigma, Belgium) (100 ng/100 μL PBS) was added. After 1 h incubation at 4 °C, 100 μL o-phenylenediamine dihydrochloride (OPD) (Thermo Fisher, Asse, Belgium) was added and incubated for 20 min in dark. One hundred microliters 0.5M H2SO4 was finally added to stop the reaction. OD492 and OD630 were measured by POLARstart Omega Plate Reader. OD492 − OD630 was calculated.

HIV-1 fusion = assay: Fusion assay, HeLa-ENV-Lai with HeLa-P4-CXCR4-LTRLacZ cells; assay type: cell-based; conditions: Figure 8A
Experimental: Fusion inhibition was evaluated as previously described. Briefly, HeLa-ENV-Lai cells were pre-incubated with or without drugs for 2 h and added to HeLa-P4-CXCR4-LTRLacZ cells which were placed in a 96-well plate 1 day before. After 24 h, cells were washed with PBS and then incubated with 50 μL containing 0.5% NP-40 (Sigma, Belgium) for 15 min at room temperature. Fifty microliters chlorophenol red-β-D-galactopyranoside (CPRG) reagent (Roche, Sigma-Aldrich, Liège, Belgium) was then added into the plate. After 30 min incubation at room temperature in dark, β−galactosidase was assessed by measuring OD562 of the cells via POLARstar Omega plate reader (BMG Labtech, Ortenberg, Germany).

[8] = system: pseudotype virus pNL4.3ΔEnvLuc-HXB2; conditions: multi-dosing time assay, 2 h after spinoculation (post-infection)
CCR5 = molecular target: T1, CCR5 (Homo sapiens, UniProt P51681); assay: Binding competition with anti-CCR5 antibody 2D7; conditions: anti-CCR5 antibody 2D7, U373-CD4-CCR5 cells
T1 construct: host or cells: U373-CD4-CCR5 cells
T1 sequence (P51681 whole entry): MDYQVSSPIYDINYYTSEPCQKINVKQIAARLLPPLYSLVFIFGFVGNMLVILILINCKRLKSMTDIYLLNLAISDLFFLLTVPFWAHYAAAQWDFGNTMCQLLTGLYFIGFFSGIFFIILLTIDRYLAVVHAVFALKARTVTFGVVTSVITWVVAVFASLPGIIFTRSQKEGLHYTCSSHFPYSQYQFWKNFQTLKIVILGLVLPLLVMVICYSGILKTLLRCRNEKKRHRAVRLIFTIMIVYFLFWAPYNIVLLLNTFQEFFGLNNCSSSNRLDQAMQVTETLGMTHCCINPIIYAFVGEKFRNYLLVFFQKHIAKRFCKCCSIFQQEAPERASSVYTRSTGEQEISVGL
Experimental: Binding competition between increasing concentrations of compounds and FITC-conjugated mouse anti-human CD4 clone RPA-4 (Biolegend, Amsterdam, Netherlands), PE-conjugated mouse anti-Human CXCR4 clone 12G5, and PE-conjugated mouse anti-human CCR5 clone 2D7 (BD Pharma, Aalst, Belgium) to U373-CD4-CXCR4 and U373-CD4-CCR5 cells was first tested by flow cytometry (FACSCanto). […] After 1 h of incubation at 4 °C, cells were washed with FACS buffer (1% bovine serum albumin, 0.1% N3Na in PBS, Sigma), and Mean Fluorescence Intensity (MFI) was measured. […] Internalization was stopped after 30 min by addition of NaN3 (0.1%) on ice. Cells were stained with anti-human CXCR4 clone 4G10 (BD, Belgium) or anti-human CCR5 (CD195) clone T21/8, (eBioscience, Asse, Belgium), Near-IR fluorescent reactive dye during 1 h at 4 °C, washed with FACS buffer, and a secondary PE-conjugated goat anti-mouse antibody (Jackson ImmunoResearch, West Grove, PA, USA).

HIV-1 ADA-M [9] = conditions: read-out: IC50 ADA-M; PBMCs, 7 days, P24 ELISA
HIV-1 IIIB [10] = conditions: read-out: IC50 IIIB; PBMCs, 7 days, P24 ELISA
[11] = system: non-B HIV-1 primary clinical isolate #1; conditions: non-B primary clinical isolate #1, 2 h
[12] = system: non-B HIV-1 primary clinical isolate #2; conditions: non-B primary clinical isolate #2, 2 h

With `Cc1cn([C@H]2C[C@H](N=[N+]=[N-])[C@@H](CO)O2)c(=O)[nH]c1=O` [AZT, azidothymidine] the IC50 (HIV-1 IIIB [1]) was 7.07 nM, the IC50 (HIV-1 ADA-M [2]) was 7.31 nM and the IC50 [3] was over 1000 nM. For the same molecule, the IC50 [4] was 6.7 nM.

In the case of `COc1cc(/C=C/c2ccc(O)cc2)cc(OC)c1` [Compound 1], the Anti-HIV activity (HIV-1) is reported as “inactive”.

In the case of `CC(=O)Oc1ccc(/C=C/c2cc(OC(C)=O)cc(OC(C)=O)c2)cc1` [Compound 2], the Anti-HIV activity (HIV-1) is reported as “inactive”.

In the case of `CC(C)=CCc1c(O)cc(O)c(CC=C(C)C)c1/C=C/c1ccccc1` [Compound 12], the Anti-HIV activity (HIV-1) is reported as “inactive”.

With `O=c1cc(-c2ccc(O)cc2O)oc2cc(O)cc(O)c12` [Compound 15, norartocarpetin] the CC50 [5] was over 500000 nM and the IC50 (HIV-1) was 39000 ± 5000 nM.

`COC(=O)/C=C/c1ccc(O)c(OC)c1` [Compound 17, methyl ferulate] gave an IC50 (HIV-1) of 600000 ± 22000 nM.

Molecule `O=C1Nc2ccc(Cl)cc2[C@@](C#CC2CC2)(C(F)(F)F)O1` [EFV, efavirenz] has an IC50 (HIV-1 IIIB [1]) of 0.1 nM, an IC50 (HIV-1 ADA-M [2]) of 0.17 nM and an IC50 [3] of over 10 nM. It also gave an IC50 [4] of over 10 nM.

With `C[C@@]12OC(=O)C[C@@H]1[C@H]1Oc3c(c(O)cc(O)c3[C@@H]3c4ccc(O)cc4O[C@H](c4ccc(O)cc4)[C@H]3O)C[C@H]1O2` [cassiabrevone] the IC50 [6] was 31000 nM, the “Inhibition of gp120/CD4 binding” value [7] was “inhibited significantly gp120/CD4 binding activity in a dose-dependent manner” and the “Inhibition of viral fusion” value (HIV-1 fusion) was “inhibited viral fusion similarly to CE”.

For `Oc1ccc([C@H]2Oc3cc(O)ccc3[C@@H](c3c(O)cc(O)c4c3O[C@H](c3ccc(O)cc3)[C@H](O)C4)[C@@H]2O)cc1` [guibourtinidol-(4α→8)-epiafzelechin], the IC50 [6] was 42500 nM, the “Inhibition of gp120/CD4 binding” value [7] was “not guibourtinidol-(4α→8)-epiafzelechin” and the “Inhibition of viral fusion” value (HIV-1 fusion) was “inhibited viral fusion similarly to CE”.

Work on `CC1(C)CC[C@]2(C(=O)O)CC[C@]3(C)C(=CC[C@@H]4[C@@]5(C)CC[C@H](O)C(C)(C)[C@@H]5CC[C@]43C)[C@@H]2C1` [oleanolic acid] yielded an IC50 [6] of 34900 ± 9090 nM.

Molecule `CCCCCCCCCCCCCCCC(=O)O` [palmitic acid] has an IC50 [6] of 87500 ± 16100 nM.

In the case of `Cc1nnc(C(=O)NC(C)(C)c2nc(C(=O)NCc3ccc(F)cc3)c(O)c(=O)n2C)o1` [raltegravir, reference compound], the “Inhibitory effect when added after infection” value [8] is reported as “inhibited HIV-1 infection”.

With `O=C1c2c(O)cc(O)cc2OC(c2ccc(O)c(O)c2)C1O` (centres unmarked) [taxifolin] the IC50 [6] was 240000 ± 3000 nM.

For “CCL5: chemokine C-C motif chemokine ligand 5, positive control for binding CCR5”, the “Inhibition of CCR5 binding” value (CCR5) was “inhibited”.

Molecule enfuvirtide has an IC50 (HIV-1 ADA-M [9]) of 0.67 nM, an IC50 (HIV-1 IIIB [10]) of 0.64 nM and an IC50 [11] of 8.25 nM. It also gave an IC50 [12] of 1.93 nM.
